Each block holds one molecule with its values, some of them ahead of it.
What was measured:
[1] = target: human D3 dopamine receptor (Homo sapiens, UniProt P35462); assay: Competition binding, [125I]IABN, HEK 293 cells transfected with human D3; conditions: for D4/D3: Table 2, ratio of Ki values
dopamine D3 receptor = dopamine D3 receptor (Homo sapiens, UniProt P35462); assay: Quinpirole-stimulated mitogenesis assay, D3
D2 receptor = D2 receptor (Homo sapiens, UniProt P14416); assay: D2 binding assay by the contractor
Chain of D2 receptor (P14416 whole entry): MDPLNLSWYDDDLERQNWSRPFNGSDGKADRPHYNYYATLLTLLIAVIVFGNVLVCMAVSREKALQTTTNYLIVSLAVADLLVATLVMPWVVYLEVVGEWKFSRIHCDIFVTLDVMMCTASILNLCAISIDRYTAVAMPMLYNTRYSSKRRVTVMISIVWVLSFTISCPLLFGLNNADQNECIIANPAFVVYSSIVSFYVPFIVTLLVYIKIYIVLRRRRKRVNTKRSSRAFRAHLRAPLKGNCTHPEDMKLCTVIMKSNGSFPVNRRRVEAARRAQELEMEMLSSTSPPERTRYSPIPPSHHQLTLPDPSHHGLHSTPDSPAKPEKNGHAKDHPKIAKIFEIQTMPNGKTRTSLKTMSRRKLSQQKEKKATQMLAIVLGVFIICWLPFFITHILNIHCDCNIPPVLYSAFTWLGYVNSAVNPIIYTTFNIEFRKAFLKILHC

Chain of human D3 dopamine receptor (P35462 whole entry): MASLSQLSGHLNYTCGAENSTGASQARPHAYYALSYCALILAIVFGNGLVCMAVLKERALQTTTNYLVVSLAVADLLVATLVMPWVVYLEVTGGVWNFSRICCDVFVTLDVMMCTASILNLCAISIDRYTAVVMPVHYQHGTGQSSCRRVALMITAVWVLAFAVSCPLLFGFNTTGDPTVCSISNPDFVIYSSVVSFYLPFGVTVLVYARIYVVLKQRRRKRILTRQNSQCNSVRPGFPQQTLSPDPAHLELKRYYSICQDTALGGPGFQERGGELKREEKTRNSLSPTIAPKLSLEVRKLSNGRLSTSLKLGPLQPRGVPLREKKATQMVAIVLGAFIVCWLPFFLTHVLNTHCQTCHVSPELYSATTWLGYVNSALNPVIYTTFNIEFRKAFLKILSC
Chain of dopamine D3 receptor (P35462 whole entry): as above

D3 selectivity over D2 receptor mediated mitogenesis (dopamine D3 receptor): ~100 fold
Compound: COc1ccccc1N1CCN(CC(O)CCNC(=O)c2cc3cc(F)ccc3[nH]2)CC1 (centres unmarked) [Compound 26, 5-Fluoro-N-(3-hydroxy-4-(4-(2-methoxy-phenyl)piperazin-1-yl)butyl)-1H-indole-2-carboxamide]

Ki (D2 receptor): > 400 nM | Ki [1]: 1 nM
Compound: COc1ccc2[nH]c(C(=O)NCCC(O)CN3CCN(c4cccc(Cl)c4Cl)CC3)cc2c1 (centres unmarked) [Compound 29, N-(4-(4-(2,3-Dichloro-phenyl)piperazin-1-yl)-3-hydroxybutyl)-5-methoxy-1H-indole-2-carboxamide]

Ki (D2 receptor): > 400 nM | EC50 (dopamine D3 receptor): 13.7 nM
Compound: COc1ccc2[nH]c(C(=O)NCCC(O)CN3CCN(c4ccccc4OC)CC3)cc2c1 (centres unmarked) [Compound 30, N-(3-Hydroxy-4-(4-(2-methoxy-phenyl)piperazin-1-yl)butyl)-5-methoxy-1H-indole-2-carboxamide]

The remaining lines, values behind:

Compound: COc1ccccc1N1CCN(CCCCNC(=O)c2cc3cc(I)ccc3o2)CC1 [Compound 14, 5-Iodo-N-(4-(4-(2-methoxy-phenyl)piperazin-1-yl)butyl)benzofuran-2-carboxamide]
D3 selectivity over D2 (binding) ([1]; from Ki values): > 100 fold

Compound: O=C(NCCC(O)CN1CCN(c2cccc(Cl)c2Cl)CC1)c1cc2ccccc2o1 (centres unmarked) [Compound 31, N-(4-(4-(2,3-Dichloro-phenyl)piperazin-1-yl)-3-hydroxybutyl)benzofuran-2-carboxamide]
D4/D3 [1]: >1600

Compound: O=C(NCCC(O)CN1CCN(c2cccc(Cl)c2Cl)CC1)c1cc2cc(I)ccc2o1 (centres unmarked) [Compound 33, N-(4-(4-(2,3-Dichloro-phenyl)piperazin-1-yl)-3-hydroxybutyl)-5-iodobenzofuran-2-carboxamide]
D4/D3 [1]: >1300
